Assay results taken from patent publication US11608343B2, “Substituted pyrimido[5,4-d]pyrimidines as HER2 inhibitors” (Boehringer Ingelheim International GmbH, priority 2020, dated 2023).

Tests used:
Assay type in all cases: cell-based
[1] = system: EGFR WT dependent A431 cells; experiment: Tumor cell line proliferation assay, EGFR WT dependent A431 cells, CellTiter-Glo; details: Homo sapiens, A-431, 72 h, read-out: GI50 A431 EGFR wt amp.
Experimental: (§1) For proliferation assays, NCI-H2170 (HER2 wild type), NCI-H2170 HER2 YVMA and EGFR WT dependent A431 cells are used. NCI-H2170 HER2 YVMA or NCI-H2170 cells are seeded into 96-well plates at 750 cells/60 μL in growth media (RPMI ATCC+10% FCS, +Penicillin/Streptomycin). […] Compounds are added by using a HP D3000 Digital Dispenser one day after plating the cells. All treatments are performed in technical triplicates. Treated cells are incubated for 72 h at 37° C. with 5% CO2. CellTiter-Glo® Luminescent Cell Viability Assay (Promega) is performed and chemoluminescence is measured by using the multilabel Plate Reader VICTOR X4. The raw data are imported into and analyzed with the Boehringer Ingelheim proprietary software MegaLab (curve fitting based on the program PRISM, GraphPad Inc.).

EGFR wild type (WT) = biological target: T1, EGFR wild type (WT) (Homo sapiens, UniProt P00533); experiment: pEGFR assay: phosphorylation of EGFR at Tyr1068 in HEK cells expressing EGFR WT (AlphaScreen Surefire); details: 4 h with compound
T1 construct: expressed in transfected cells; host or cells: human HEK cells (ATCC CRL-1573), retroviral transduction
Experimental: This assay quantifies the phosphorylation of EGFR at Tyr1068 and is used to measure the inhibitory effect of compounds on the transgenic EGFR wild type (WT) protein expressed in HEK cells.
(§2) Transduced cells are selected using puromycin. p-EGFR Tyr1068 is determined using the AlphaScreen Surefire pEGF Receptor (Tyr1068) Assay (PerkinElmer, TGRERS). For the assay, HEK EGFR WT cells are seeded in MEM medium with 10% FBS. […] Subsequently, 60.000 cells/well in 60 μL are added. Cells are incubated with compound for 4 h at 37° C. […] The mixture is incubated at a temperature of 20-25° C. with shaking (700 rpm) for 20 min. After centrifugation, 4 μL of the lysate are transferred to Proxiplates. […] Plates are shaken for 1 min (1400 rpm) and incubated for 2 h at a temperature of (20-25° C.) in the dark. […] Plates are shaken for 1 min (1400 rpm) and incubated for 2 h at a temperature of (20-25° C.) in the dark. Plates are subsequently analyzed using an Envision reader platform. […] IC50 values are computed from these values in the MEGASTAR IC50 application using a 4 parametric logistic model.
This cellular phospho-EGFR (pEGFR) compound dose-response assay quantifies the phosphorylation of EGFR at Tyr1068 in HEK cells expressing EGFR WT. The results of the assay are provided as IC50 values.

[2] = system: Ba/F3 cells expressing EGFR WT; experiment: Ba/F3 proliferation assay, EGFR WT (EGF dependent), CellTiter-Glo; details: Mus musculus, BaF3, EGF instead of IL-3, 72 h, read-out: GI50 BAF3 EGF dep.
Experimental: (§3) Ba/F3 Cell Model Generation and Proliferation Assays
(§4) Plasmids containing HER2 mutants and EGFR WT were obtained from GeneScript. To generate EGFR/HER2-dependent Ba/F3 models, Ba/F3 cells are transduced with retroviruses containing vectors that harbor EGFR WT, HER2 WT or HER2 mutants (YVMA). Platinum-E cells (Cell Biolabs) are used for retrovirus packaging. Retrovirus is added to Ba/F3 cells. To ensure infection, 4 μg/mL polybrene is added and cells are spin-infected. Infection efficiency is confirmed by measuring GFP-positive cells using a cell analyzer. Cells with an infection efficiency of 10% to 20% are further cultivated and puromycin selection with 1 μg/mL is initiated. As a control, parental Ba/F3 cells are used to assess the selection status. Selection is considered successful when parental Ba/F3 cells cultures die. To evaluate the transforming potential of HER2 mutations, the growth medium is no longer supplemented with IL-3. Ba/F3 cells harboring the empty vector are used as a control. A switch from IL-3 to EGF is performed for Ba/F3 cells expressing EGFR WT known for its dependency on EGF ligand. Approximately ten days before conducting the experiments, puromycin is left out. For proliferation assays (data in tables 10 and 12), Ba/F3 cells are seeded into 96-well plates at 5×10^3 cells/100 μL in growth media. Compounds are added by using a HP D3000 Digital Dispenser. All treatments are performed in technical triplicates. Treated cells are incubated for 72 h at 37° C. with 5% CO2. A CellTiter-Glo® Luminescent Cell Viability Assay (Promega) is performed and chemoluminescence is measured by using the multilabel Plate Reader VICTOR X4. The raw data are imported into and analyzed with the Boehringer Ingelheim proprietary software MegaLab (curve fitting based on the program PRISM, GraphPad Inc.).

HER2 YVMA = biological target: T2, HER2 YVMA (Homo sapiens, UniProt P04626, INS775YVMA); experiment: pHER2 (ERBB2) YVMA assay: phosphorylation of HER2 YVMA at Tyr1221/1222 in HEK cells (AlphaScreen Surefire); details: doxycycline induced, 4 h with compound
T2 construct: expressed in transfected cells; host or cells: human HEK cells, retroviral transduction, doxycycline-inducible expression
Experimental: as §2, with “For” for “Transduced cells are selected using puromycin. p-EGFR Tyr1068 is determined using the AlphaScreen Surefire pEGF Receptor (Tyr1068) Assay (PerkinElmer, TGRERS). For”, “HER2 YVMA” for “EGFR WT”, “FBS. 4 hours prior to compound addition, HER2 YVMA expression is induced using 1 μg/mL Doxycycline.” for “FBS.”, “20-25° C.” for “(20-25° C.)”, “model. […] The results of the assay are provided as IC50 values.” for “model.”

[3] = system: NCI-H2170 (HER2 wild type) cells; experiment: Tumor cell line proliferation assay, NCI-H2170 (HER2 wild type), CellTiter-Glo; details: Homo sapiens, 72 h, read-out: GI50 NCI H-2170 HER2 wt amp.
Experimental: as §1

Ba/F3 cells HER2 WT = experiment: Ba/F3 proliferation assay, HER2 WT, CellTiter-Glo; details: Mus musculus, BaF3, 72 h
Experimental: as §3, §4

[4] = system: NCI-H2170 HER2 YVMA cells; experiment: Tumor cell line proliferation assay, NCI-H2170 HER2 YVMA, CellTiter-Glo; details: Homo sapiens, 72 h, read-out: GI50 NCI H-2170 HER2 YVMA
Description: HER2 YVMA Tumor Cell Line Model Generation and Proliferation Assays
Homology-directed genome engineering is employed to insert a 12 nucleotide sequence encoding YVMA into Exon 20 of the genomic HER2 locus in NCI-H2170 cells. […] The DNA template containing the HER2 exon 20 YVMA insertion variant was obtained from GenScript. PCR followed by Sanger sequencing is used to confirm the presence of the 12-nucleotide insertion in HER2 Exon 20 resulting in the YVMA amino acid duplication.
as §1

[5] = system: Ba/F3 cells HER2 mutants (YVMA); experiment: Ba/F3 proliferation assay, HER2 YVMA, CellTiter-Glo; details: Mus musculus, BaF3, 72 h
Experimental: as §3, §4

T2 sequence (P04626 with tags, fused parts or gaps INS775YVMA): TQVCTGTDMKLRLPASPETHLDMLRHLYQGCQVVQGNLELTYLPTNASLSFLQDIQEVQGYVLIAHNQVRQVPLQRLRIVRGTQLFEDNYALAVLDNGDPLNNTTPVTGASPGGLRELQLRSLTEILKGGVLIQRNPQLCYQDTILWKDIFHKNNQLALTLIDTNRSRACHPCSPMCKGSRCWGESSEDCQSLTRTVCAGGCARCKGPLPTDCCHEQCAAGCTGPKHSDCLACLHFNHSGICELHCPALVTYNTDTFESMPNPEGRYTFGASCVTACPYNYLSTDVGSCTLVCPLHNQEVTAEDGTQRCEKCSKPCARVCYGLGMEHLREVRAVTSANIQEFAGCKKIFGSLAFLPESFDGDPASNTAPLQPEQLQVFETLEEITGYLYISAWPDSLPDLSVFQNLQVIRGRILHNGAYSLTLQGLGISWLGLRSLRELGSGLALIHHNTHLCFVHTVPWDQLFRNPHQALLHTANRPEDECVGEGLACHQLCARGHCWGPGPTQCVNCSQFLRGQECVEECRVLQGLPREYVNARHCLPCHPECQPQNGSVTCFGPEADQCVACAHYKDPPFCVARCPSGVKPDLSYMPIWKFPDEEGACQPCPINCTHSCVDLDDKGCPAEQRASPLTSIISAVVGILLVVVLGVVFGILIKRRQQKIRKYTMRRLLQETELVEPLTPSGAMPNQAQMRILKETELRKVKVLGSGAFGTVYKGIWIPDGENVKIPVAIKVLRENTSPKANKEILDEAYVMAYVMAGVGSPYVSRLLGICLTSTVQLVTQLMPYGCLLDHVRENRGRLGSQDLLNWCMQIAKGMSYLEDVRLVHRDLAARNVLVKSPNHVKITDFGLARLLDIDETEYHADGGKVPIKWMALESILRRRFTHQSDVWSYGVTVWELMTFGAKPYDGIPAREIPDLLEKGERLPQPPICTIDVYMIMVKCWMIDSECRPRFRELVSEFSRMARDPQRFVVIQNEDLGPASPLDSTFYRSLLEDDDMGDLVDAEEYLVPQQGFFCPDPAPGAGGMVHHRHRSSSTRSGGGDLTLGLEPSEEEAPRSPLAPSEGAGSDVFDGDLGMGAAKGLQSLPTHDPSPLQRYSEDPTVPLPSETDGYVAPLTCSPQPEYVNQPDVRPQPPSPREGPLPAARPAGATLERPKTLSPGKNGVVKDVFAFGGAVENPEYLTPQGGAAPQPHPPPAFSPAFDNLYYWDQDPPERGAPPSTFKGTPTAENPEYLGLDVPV
T1 sequence (P00533 25-1210): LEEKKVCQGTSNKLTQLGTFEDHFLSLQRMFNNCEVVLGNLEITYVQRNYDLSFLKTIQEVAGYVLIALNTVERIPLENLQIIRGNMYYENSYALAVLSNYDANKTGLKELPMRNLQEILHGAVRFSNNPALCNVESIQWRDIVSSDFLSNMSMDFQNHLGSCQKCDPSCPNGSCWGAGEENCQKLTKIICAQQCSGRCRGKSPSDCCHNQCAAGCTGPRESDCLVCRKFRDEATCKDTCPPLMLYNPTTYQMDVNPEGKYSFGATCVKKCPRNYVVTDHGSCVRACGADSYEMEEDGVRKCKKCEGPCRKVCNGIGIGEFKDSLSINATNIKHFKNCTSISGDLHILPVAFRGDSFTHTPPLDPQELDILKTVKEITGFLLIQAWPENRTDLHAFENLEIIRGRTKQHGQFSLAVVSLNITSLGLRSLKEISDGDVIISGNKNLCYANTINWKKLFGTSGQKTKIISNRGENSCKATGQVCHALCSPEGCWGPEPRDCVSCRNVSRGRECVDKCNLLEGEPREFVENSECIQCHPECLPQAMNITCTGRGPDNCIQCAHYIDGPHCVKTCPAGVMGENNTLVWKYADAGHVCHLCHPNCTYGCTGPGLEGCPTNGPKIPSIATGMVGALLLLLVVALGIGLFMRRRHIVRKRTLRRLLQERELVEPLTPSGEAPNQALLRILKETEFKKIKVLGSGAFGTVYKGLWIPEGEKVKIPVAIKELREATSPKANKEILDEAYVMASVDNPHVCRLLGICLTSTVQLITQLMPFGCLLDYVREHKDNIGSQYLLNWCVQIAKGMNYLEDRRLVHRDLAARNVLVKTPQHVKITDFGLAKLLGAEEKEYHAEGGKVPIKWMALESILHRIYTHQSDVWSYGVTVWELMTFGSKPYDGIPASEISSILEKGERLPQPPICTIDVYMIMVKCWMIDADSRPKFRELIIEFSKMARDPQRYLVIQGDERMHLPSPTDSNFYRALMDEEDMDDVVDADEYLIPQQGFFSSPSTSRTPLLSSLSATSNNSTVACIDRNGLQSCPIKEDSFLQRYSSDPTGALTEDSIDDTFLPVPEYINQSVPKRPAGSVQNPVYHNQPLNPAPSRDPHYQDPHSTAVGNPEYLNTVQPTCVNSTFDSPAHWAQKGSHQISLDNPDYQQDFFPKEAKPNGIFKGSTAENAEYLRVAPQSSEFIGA

| GI50 [1] [nM] | IC50 (EGFR wild type (WT)) [nM] | GI50 [2] [nM] | IC50 (HER2 YVMA) [nM] | GI50 (Ba/F3 cells HER2 WT) [nM] | GI50 [5] [nM] | SMILES | GI50 [3] [nM] | GI50 [4] [nM] |
| --- | --- | --- | --- | --- | --- | --- | --- | --- |
| 660 | 23 | 375 | 5 | 1 | 10 | C=CC(=O)N1CCC(Nc2ncc3ncnc(Nc4ccc(Oc5ccn6ncnc6c5)c(C)c4)c3n2)CC1 [Example I-16] | 4 | 19 |
| > 5000 | 429 | > 2000 | 28 | 1 | 32 | C=CC(=O)NC1CN(c2ncc3ncnc(Nc4ccc(Oc5cnc6c(c5)ncn6C)c(C)c4)c3n2)C1 [Example I-13] | 19 | 82 |
| > 5000 | 715 | 2240 | 26 | 1 | 29 | C=CC(=O)NC1CN(c2ncc3ncnc(Nc4ccc(Oc5ccn6ncnc6c5)c(C)c4)c3n2)C1 [Example I-09] | 9 | 75 |
| > 5000 | 773 | > 5000 | 44 | 1 | 31 | C=CC(=O)NC1CCN(c2ncc3ncnc(Nc4cc(F)c(Oc5ccn6ncnc6c5)c(Cl)c4)c3n2)CC1 [Example I-06] | 12 | 215 |
| > 5000 | 628 | 3010 | 34 | 1 | 37 | C#Cc1cc(Nc2ncnc3cnc(N4CCC(NC(=O)C=C)CC4)nc23)ccc1Oc1ccc2c(c1)ncn2C [Example I-02] | 13 | 228 |
| 1 | – | 1 | 5 | 1 | 2 | C=CC(=O)N1CCC(Oc2cc3c(Nc4ccc(Cl)c(Cl)c4F)ncnc3cc2OC)CC1 [Poziotinib, reference compound] | 1 | 5 |
| > 5000 | 317 | 1190 | 33 | – | 60 | C=CC(=O)Nc1ccc2ncnc(Nc3ccc(Oc4ccc5c(c4)ncn5C)c(C)c3)c2c1 [WO 2007/059257 Ex. 185, reference compound] | 108 | 926 |
| > 5000 | – | 1540 | 13 | 1 | 16 | C=CC(=O)NC1CCN(c2ncc3ncnc(Nc4ccc(Oc5ccc6c(c5)ncn6C)c(C)c4)c3n2)CC1 [Example I-01] | 6 | 33 |

The remaining lines, values behind:

| SMILES | GI50 [1] [nM] | IC50 (EGFR wild type (WT)) [nM] | GI50 [2] [nM] | IC50 (HER2 YVMA) [nM] | GI50 (Ba/F3 cells HER2 WT) [nM] | GI50 [5] [nM] | GI50 [3] [nM] | GI50 [4] [nM] |
| --- | --- | --- | --- | --- | --- | --- | --- | --- |
| C=CC(=O)N1CCC[C@@H](n2nc(-c3ccc(Oc4ccccc4)cc3)c3c(N)ncnc32)C1 [Ibrutinib, reference compound] | 199 | – | 70 | – | – | 44 | 16 | 132 |
| C=CC(=O)NC1CCN(c2ncc3ncnc(Nc4ccc(Oc5ccc6c(c5)ncn6C)c(Cl)c4)c3n2)CC1 [Example I-05] | > 5000 | 315 | 1880 | 10 | 1 | 21 | 8 | 55 |
| C=CC(=O)NC1CCN(c2ncc3ncnc(Nc4ccc(Oc5ccc6c(c5)ncn6C)c(OC)c4)c3n2)CC1 [Example I-03] | > 5000 | 916 | > 5000 | 20 | 2 | 38 | 11 | 139 |
| C=CC(=O)N1CC[C@@H](Nc2ncc3ncnc(Nc4ccc(Oc5ccn6ncnc6c5)c(C)c4)c3n2)C1 [Example I-18] | > 2000 | 137 | 3270 | 4 | – | 29 | 10 | 87 |
| C=CC(=O)NC1CCN(c2ncc3ncnc(Nc4ccc(Oc5ccn6ccnc6c5)c(C)c4)c3n2)CC1 [Example I-12] | > 5000 | 230 | 1750 | 16 | 2 | 18 | 8 | 71 |
| C=CC(=O)N1CCC(Nc2ncc3ncnc(Nc4ccc(Oc5ccc6c(c5)ncn6C)c(C)c4)c3n2)CC1 [Example I-14] | > 2000 | 73 | 756 | 11 | 2 | 17 | 10 | 37 |
| Cc1cc(Nc2ncnc3ccc(NC4=NC(C)(C)CO4)cc23)ccc1Oc1ccn2ncnc2c1 [Tucatinib, reference compound] | 4220 | 1410 | 2970 | 4 | 10 | 338 | 58 | 798 |
| CCOc1cc2ncc(C#N)c(Nc3ccc(OCc4ccccn4)c(Cl)c3)c2cc1NC(=O)/C=C/CN(C)C [Neratinib, reference compound] | 55 | – | 14 | – | – | 5 | 3 | 37 |
| C=CC(=O)Nc1ccc2ncnc(Nc3ccc(OCc4cccc(F)c4)c(Cl)c3)c2c1 [Allitinib, reference compound] | 403 | 1 | 31 | 3 | – | 17 | 36 | 203 |
